This passage reports T/C results from PubChem BioAssay AID270 (DTP/NCI, 2004).

Several values for one entry are separate records, joined by “and”; a condition that tells them apart may be missing. Equal entries are not always repeated. Inconclusive results are not listed.

The subject of the assay is BDF1 mice, s.c. Lewis lung carcinoma, T/C %. In words: NCI In Vivo Anticancer Drug Screen. Data for tumor model Lewis Lung Carcinoma (subcutaneous) in B6D2F1 (BDF1) mice. The method, boiled down:
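First, mice carry a transplantable tumor. Next, groups receive either compound or vehicle. Finally, survival or tumor dimensions in the dosed animals are divided by the corresponding control figure.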

Where [1] appears, read: endpoint: median survival time, dose: 12.5 mg/kg/injection, schedule: Q01DX009 (ip), vehicle: saline with Tween-80, higher = longer survival.
[2] abbreviates: endpoint: median survival time, dose: 25.0 mg/kg/injection, schedule: Q01DX009 (ip), vehicle: saline with Tween-80, higher = longer survival.
Where [3] appears, read: endpoint: median survival time, dose: 50.0 mg/kg/injection, schedule: Q01DX009 (ip), vehicle: saline with Tween-80, higher = longer survival.
Where [4] appears, read: endpoint: mean tumor weight, dose: 6.25 mg/kg/injection, schedule: Q01DX011 (ip), vehicle: saline, higher = larger tumour.
[5] abbreviates: endpoint: mean tumor weight, dose: 25.0 mg/kg/injection, schedule: Q01DX011 (ip), vehicle: saline, higher = larger tumour.
Where [6] appears, read: endpoint: mean tumor weight, dose: 50.0 mg/kg/injection, schedule: Q01DX011 (ip), vehicle: saline, higher = larger tumour.

Regarding `CC(=O)C1=C(O)C2(C)c3c(O)c(C)c(O)c(C(C)=O)c3OC2(Sc2ccccc2)CC1=O` (stereo unspecified), the T/C by setting is: (endpoint: median survival time, dose: 6.25 mg/kg/injection, schedule: Q01DX009 (ip), vehicle: gum acacia, higher = longer survival) 101 % of control; (endpoint: median survival time, dose: 25.0 mg/kg/injection, schedule: Q01DX009 (ip), vehicle: gum acacia, higher = longer survival) 101 % of control; (endpoint: median survival time, dose: 50.0 mg/kg/injection, schedule: Q01DX009 (ip), vehicle: gum acacia, higher = longer survival) 97 % of control.
Turning to `Nc1nc(SN=Nc2ccc(S(=O)(=O)O)cc2)c2[nH]cnc2n1`, the T/C was 78 % of control (endpoint: mean tumor weight, dose: 1.0 mg/kg/injection, schedule: Q01DX011 (ip), vehicle: saline, higher = larger tumour); 65 % of control (endpoint: mean tumor weight, dose: 5.0 mg/kg/injection, schedule: Q01DX011 (ip), vehicle: saline, higher = larger tumour); 40 % of control (endpoint: mean tumor weight, dose: 9.0 mg/kg/injection, schedule: Q01DX011 (ip), vehicle: saline, higher = larger tumour); 40 % of control (endpoint: mean tumor weight, dose: 15.0 mg/kg/injection, schedule: Q01DX011 (ip), vehicle: saline, higher = larger tumour).
As for `O=C1N[C@@H]([C@H]2CC[C@H](Cl)CN2)C(=O)N[C@H]1[C@H]1CC[C@H](Cl)CN1`, the T/C runs as follows: (endpoint: median survival time, dose: 2.7 mg/kg/injection, schedule: Q01DX009 (ip), vehicle: saline, higher = longer survival) 102 % of control; (endpoint: median survival time, dose: 4.4 mg/kg/injection, schedule: Q04DX003 (ip), vehicle: saline, higher = longer survival) 99 % of control; (endpoint: median survival time, dose: 6.5 mg/kg/injection, schedule: Q04DX003 (ip), vehicle: saline, higher = longer survival) 105 % of control; (endpoint: median survival time, dose: 9.0 mg/kg/injection, schedule: Q01DX001 (ip), vehicle: saline, higher = longer survival) 91 % of control; (endpoint: median survival time, dose: 13.0 mg/kg/injection, schedule: Q01DX001 (ip), vehicle: saline, higher = longer survival) 101 % of control; (endpoint: median survival time, dose: 20.0 mg/kg/injection, schedule: Q01DX001 (ip), vehicle: saline, higher = longer survival) 100 % of control.
Take `CC(C)CNc1ccc(S(=O)(=O)c2ccc(NCC(C)C)c([N+](=O)[O-])c2)cc1[N+](=O)[O-]`: the T/C was 110 % of control (endpoint: median survival time, dose: 6.25 mg/kg/injection, schedule: Q01DX009 (ip), vehicle: saline with Tween-80, higher = longer survival); 103 % of control under setting [1]; 109 % of control under setting [2]; 86 % of control under setting [3].
With `C/C=C(\C)C(=O)O[C@@H]1c2cc3c(cc2-c2c(cc(OC)c(OC)c2OC)[C@@H]2C(=O)OC[C@@H]12)OCO3`, the T/C runs as follows: (endpoint: median survival time, dose: 1.25 mg/kg/injection, schedule: Q01DX009 (ip), vehicle: Klucel (hydroxypropylcellulose) (HPC), higher = longer survival) 99 % of control; (endpoint: median survival time, dose: 2.5 mg/kg/injection, schedule: Q01DX009 (ip), vehicle: Klucel (hydroxypropylcellulose) (HPC), higher = longer survival) 110 % of control; (endpoint: median survival time, dose: 5.0 mg/kg/injection, schedule: Q01DX009 (ip), vehicle: Klucel (hydroxypropylcellulose) (HPC), higher = longer survival) 101 % of control.
On to `O=c1cc(-c2ccccc2)oc2ccc(O)cc12`, for which the T/C was 109 % of control (endpoint: mean tumor weight, dose: 3.13 mg/kg/injection, schedule: Q01DX011 (ip), vehicle: saline, higher = larger tumour); 68 % of control under setting [4]; 77 % of control (endpoint: mean tumor weight, dose: 25.0 mg/kg/injection, schedule: Q01DX010 (ip), vehicle: saline, higher = larger tumour); 119 % of control under setting [5]; 101 % of control (endpoint: mean tumor weight, dose: 50.0 mg/kg/injection, schedule: Q01DX010 (ip), vehicle: saline, higher = larger tumour); 86 % of control (endpoint: mean tumor weight, dose: 100.0 mg/kg/injection, schedule: Q01DX010 (ip), vehicle: saline, higher = larger tumour). Where the note is “endpoint: mean tumor weight, dose: 200.0 mg/kg/injection, schedule: Q01DX010 (ip), vehicle: saline, higher = larger tumour”, the T/C is 97 % of control.
For the molecule `COC1C(O)CC(OC2CC(OC3CC(O[C@@H]4C(=O)c5c(cc6cc(OC7CC(OC8CC(O)C(O)C(C)O8)C(O)C(C)O7)c(C)c(O)c6c5O)C[C@H]4[C@H](OC)C(=O)[C@@H](O)[C@@H](C)O)OC(C)C3O)OC(C)C2O)OC1C` (stereo partly specified), the T/C by setting is: (endpoint: median survival time, dose: 37.5 micrograms/kg/injection, schedule: Q01DX009 (ip), vehicle: water, higher = longer survival) 110 % of control; (endpoint: median survival time, dose: 75.0 micrograms/kg/injection, schedule: Q01DX009 (ip), vehicle: water, higher = longer survival) 118 % of control; (endpoint: median survival time, dose: 150.0 micrograms/kg/injection, schedule: Q01DX009 (ip), vehicle: water, higher = longer survival) 86 % of control.
On to `CCCCCC/C=C/[N+]([O-])=NC(COC)C(C)O` (stereo unspecified), for which the T/C was 84 % of control (endpoint: mean tumor weight, dose: 5.0 mg/kg/injection, schedule: Q01DX011 (ip), vehicle: carboxymethylcellulose (CMC), higher = larger tumour) and 96 % of control (endpoint: mean tumor weight, dose: 10.0 mg/kg/injection, schedule: Q01DX011 (ip), vehicle: carboxymethylcellulose (CMC), higher = larger tumour).
Consider `N/N=C(\N)c1nn(C2OC(CO)C(O)C2O)c2ncnc(N)c12` (stereo unspecified), for which the T/C was 124 % of control (endpoint: median survival time, dose: 40.0 mg/kg/injection, schedule: Q01DX005 (ip), vehicle: saline, higher = longer survival) and 104 % of control (endpoint: median survival time, dose: 80.0 mg/kg/injection, schedule: Q01DX005 (ip), vehicle: saline, higher = longer survival).
Take `O=C(O)C(O)C(O)C1[O][Sb][O]C1CO` (stereo unspecified): the T/C (endpoint: median survival time, dose: 50.0 mg/kg/injection, schedule: Q01DX009 (ip), vehicle: saline, higher = longer survival) was 104 % of control and the T/C (endpoint: median survival time, dose: 100.0 mg/kg/injection, schedule: Q01DX009 (ip), vehicle: saline, higher = longer survival) is 102 % of control.
As for `COc1cc2c(cc1Oc1c(Oc3c(O)c(OC)cc4c3C(CC(C)C)N(C)CC4)c(OC)cc3c1C(CC(C)C)N(C)CC3)C(CC(C)C)N(C)CC2` (stereo unspecified), the T/C is, setting by setting: (endpoint: median survival time, dose: 12.5 mg/kg/injection, schedule: Q01DX009 (ip), vehicle: Klucel (hydroxypropylcellulose) (HPC), higher = longer survival) 92 % of control; (endpoint: median survival time, dose: 25.0 mg/kg/injection, schedule: Q01DX009 (ip), vehicle: Klucel (hydroxypropylcellulose) (HPC), higher = longer survival) 98 % of control; (endpoint: median survival time, dose: 50.0 mg/kg/injection, schedule: Q01DX009 (ip), vehicle: Klucel (hydroxypropylcellulose) (HPC), higher = longer survival) 88 % of control.
Take `CS(=O)(=O)OCC(O)C(O)C(O)C(O)COS(C)(=O)=O` (stereo unspecified): the T/C is, setting by setting: under setting [6], 86 % of control and 97 % of control; (endpoint: mean tumor weight, dose: 200.0 mg/kg/injection, schedule: Q01DX011 (ip), vehicle: saline, higher = larger tumour) 54 % of control and 60 % of control; (endpoint: mean tumor weight, dose: 400.0 mg/kg/injection, schedule: Q01DX011 (ip), vehicle: saline, higher = larger tumour) 58 % of control.
In the case of `CC(C)=CC1C(C(=O)OCc2ccc(C)cc2C)C1(C)C` (stereo unspecified), the T/C reads like this: under setting [1], 93 % of control; under setting [2], 104 % of control; under setting [3], 89 % of control; (endpoint: median survival time, dose: 100.0 mg/kg/injection, schedule: Q01DX009 (ip), vehicle: saline with Tween-80, higher = longer survival) 95 % of control; (endpoint: median survival time, dose: 200.0 mg/kg/injection, schedule: Q01DX009 (ip), vehicle: saline with Tween-80, higher = longer survival) 98 % of control.
As to `NC(=S)N/N=C/c1ncccc1O`, the T/C is, setting by setting: under setting [4], 99 % of control; (endpoint: mean tumor weight, dose: 12.5 mg/kg/injection, schedule: Q01DX011 (ip), vehicle: saline, higher = larger tumour) 86 % of control; under setting [5], 61 % of control; under setting [6], 31 % of control; (endpoint: mean tumor weight, dose: 100.0 mg/kg/injection, schedule: Q01DX011 (ip), vehicle: saline, higher = larger tumour) 1 % of control.
`CC1CCOS(=O)O1` (stereo unspecified): the T/C is, setting by setting: (endpoint: mean tumor weight, dose: 10.0 mg/kg/injection, schedule: Q01DX011 (ip), vehicle: saline, higher = larger tumour) 66 % of control; (endpoint: mean tumor weight, dose: 20.0 mg/kg/injection, schedule: Q01DX011 (ip), vehicle: saline, higher = larger tumour) 63 % of control; (endpoint: mean tumor weight, dose: 40.0 mg/kg/injection, schedule: Q01DX011 (ip), vehicle: saline, higher = larger tumour) 65 % of control.
As for `C=C1C(=O)O[C@@H]2[C@H](O)[C@@H](C)[C@@H]3C=CC(=O)[C@@]3(C)[C@H](OC(=O)C=C(C)C)[C@H]12`, the T/C is 95 % of control (endpoint: median survival time, dose: 0.63 mg/kg/injection, schedule: Q01DX009 (ip), vehicle: saline with Tween-80, higher = longer survival); 92 % of control (endpoint: median survival time, dose: 1.25 mg/kg/injection, schedule: Q01DX009 (ip), vehicle: saline with Tween-80, higher = longer survival); 99 % of control (endpoint: median survival time, dose: 2.5 mg/kg/injection, schedule: Q01DX009 (ip), vehicle: saline with Tween-80, higher = longer survival); 95 % of control (endpoint: median survival time, dose: 5.0 mg/kg/injection, schedule: Q01DX009 (ip), vehicle: saline with Tween-80, higher = longer survival); 118 % of control (endpoint: median survival time, dose: 10.0 mg/kg/injection, schedule: Q01DX009 (ip), vehicle: Klucel (hydroxypropylcellulose) (HPC), higher = longer survival); 92 % of control (endpoint: median survival time, dose: 10.0 mg/kg/injection, schedule: Q01DX009 (ip), vehicle: saline with Tween-80, higher = longer survival).
